Reference: patent publication US20080292619A1, “Pharmaceutical Composition Containing Meltrin Antagonist” (MOCHIDA PHARMACEUTICAL CO., LTD., priority 2004, published 2008)
In the oligonucleotide strings, read from the 5' end, every base follows the letter of its sugar. An asterisk marks phosphorothioate; unmarked linkages are phosphodiester. Other units and linkages are bracketed, terminal groups are in braces. A string of capitals states the bases alone. d = 2'-deoxy (DNA)

What was measured:
[1] = test system: adipocyte; assay: Toxicity for the adipocyte (WST1 assay); type: cell-based, human; conditions: at the concentration used in the assay (0.3 to 10 μg/mL)
Experimental: Toxicity of the test substance to the adipocyte was examined by WST1 assay. More specifically, Premix WST-1 Cell Proliferation Assay System (Takara Shuzo Co., Ltd.) was added at 10 μL/well, and after incubating at 37° C. for 60 minutes in a CO2 incubator, absorbance (450 nm-650 nm) was measured to examine influence on the adipocyte.
(§1) According to the method of Example 15, M82463 was added to the human preadipocyte incubation system at a concentration of 0.3 to 10 μg/mL so that the final concentration of the DMSO was 0.2%. As a control, a group having only the DMSO added to a final concentration of 0.2% was used.

[2] = molecular target: T1, meltrin α (Homo sapiens, UniProt O43184, E208G/T209S); assay: Inhibition of protease activity of meltrin α (rhIGF-BP3 cleavage, western blotting); type: biochemical; conditions: low molecular weight compound 10 μg/mL; rhIGF-BP3 band
T1 construct: had been converted to mature meltrin α having the prodomain deleted (molecular weight 68 kDa); made in house; host or cells: COS-1
T1 sequence (O43184 208-738 isoform O43184-2 E208G/T209S): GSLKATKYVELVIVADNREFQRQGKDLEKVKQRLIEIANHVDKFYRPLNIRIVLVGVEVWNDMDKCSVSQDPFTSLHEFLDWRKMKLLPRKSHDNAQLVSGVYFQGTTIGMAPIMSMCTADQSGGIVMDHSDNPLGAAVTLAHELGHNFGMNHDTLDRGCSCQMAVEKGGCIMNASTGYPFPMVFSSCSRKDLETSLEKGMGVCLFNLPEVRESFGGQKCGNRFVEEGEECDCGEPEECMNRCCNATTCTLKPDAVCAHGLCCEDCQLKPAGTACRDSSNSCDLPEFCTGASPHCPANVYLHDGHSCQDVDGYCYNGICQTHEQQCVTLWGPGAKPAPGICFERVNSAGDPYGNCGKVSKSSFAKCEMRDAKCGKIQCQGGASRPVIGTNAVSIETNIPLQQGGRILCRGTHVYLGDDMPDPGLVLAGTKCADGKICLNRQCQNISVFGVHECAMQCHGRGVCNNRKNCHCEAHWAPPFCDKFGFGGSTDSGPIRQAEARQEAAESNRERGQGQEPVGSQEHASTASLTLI
Experimental: Thrombin (Amersham Biosciences) was added to the purified meltrin α-STFLAG prepared in Example 5, and mixture was kept at 25° C. for 15 hours. When the solution after the reaction was examined by repeating the procedure of Example 5, the human meltrin α containing the prodomain (molecular weight 92 kDa) had been converted to mature meltrin α having the prodomain deleted (molecular weight 68 kDa). For measuring the enzymatic activity of the meltrin α, the solution after the prodomain cleavage with thrombin followed by inactivation of the thrombin by 10 mM APMSF (Wako Pure Chemical Industries, Ltd.) was used. The disappearance of the thrombin activity was confirmed by using the synthetic substrate for the thrombin on the reaction solution. […]
The anti-human meltrin α antibodies produced in Examples 6 and 7 were evaluated on their activity for inhibiting protease activity of meltrin α by using the protease activity assay system of Example 9. […] After the reaction, the reaction solution was electrophoresed by SDS-PAGE, and the rhIGF-BP3 was detected by western blotting.
According to the method of Example 9, activity of the low molecular weight compound for inhibiting protease activity of the meltrin α was assayed as described below. […] After the reaction, the reaction solution was electrophoresed by SDS-PAGE, and the rhIGF-BP3 was detected by western blotting.

[3] = test system: human preadipocyte; assay: Adipocyte proliferation and differentiation, neutral fat accumulation (Adipo Red); type: cell-based
Experimental: The differentiation medium was prepared by adding supplement kit PGM SingleQuots, #PT-9500, Lot.08101163 (Sanko Junyaku Co., Ltd.) to 100 mL of growth medium. 50 μL of the supernatant was removed from the 96 well plate prepared in Example 12, and 50 μL of the siRNA or the antisense oligonucleotide prepared in the differentiation medium was added, and incubation was conducted in a CO2 incubator for 5 days to 15 days.
The amount of neutral fat accumulated in the adipocyte was determined by fluorometry using Adipo Red stain.
After taking the 96 well plate out of the CO2 incubator, the plate was allowed to stand until it cooled to room temperature. The plate was centrifuged at 300 g (1200 rpm) for 10 minutes at room temperature to remove the medium. Next, the plate was gently washed with 200 μL/well of PBS (Sigma), and 200 μL/well of PBS was added to the well.
Next, 5 μL/well of Adipo Red Assay Reagent (Adipo Red, Cat. #PT-7009, Lot.3F0497, A Cambrex Company) was added, and the plate was allowed to stand at room temperature for at least 10 minutes to thereby stain the neutral fat that had accumulated in the adipocyte. The fluorescence intensity was measured in a fluorometer at an excitation wavelength of 485 nm and an emission wavelength of 535 nm to thereby determine the fat accumulation.
as §1
After preparation of the antibody to the concentration of 0.100 mg/mL with physiological saline, 9 volumes of adipocyte differentiation medium was added to 1 volume of the antibody solution, and the solution was sterilized by filtering through a filter having a diameter of 0.22 μm (MILLEX-GV 0.22 μm Filter unit, 3slgv013SL, Lot. R2NN83622, MILLIPORE). […]

[4] = test system: meltrin α mRNA; assay: Quantitative determination of human meltrin α expression in human preadipocyte (real time PCR); type: cell-based; conditions: antisense DNA transfected human preadipocyte; sense oligo DNA group = 100%
Experimental: First, the human preadipocyte for use in the assay (human preadipocytes-sq donor10547, POIETICS #PT-5001, Lot.3F0242, Sanko Junyaku Co., Ltd.) which had been adjusted to a cell concentration of 1×10^5 cells/mL was added to a 96 well culture plate at 1×10^2 to 1×10^4 cells/well/100 μL, and cultured overnight. In the meanwhile, the culture medium in which preadipocytes had been suspended at 1×10^5 cells/mL was added to a 6 well plate at 1600 μL/well, and growth medium was also added to the plate at 400 μL/well, and the cells were cultured overnight. 1 μg to 50 μg of synthetic oligo DNA was added to serum free adipocyte growth medium or serum. free D-MEM, and after adding 3 μL of FuGENE6 per 1 μg of oligo DNA, the mediums were allowed to stand at room temperature for 15 to 45 minutes. From the 6 well plate described above, 400 μL/well of the medium was removed and 400 μL/well of the culture medium containing the oligo DNA was added, and the plate was incubated at 37° C. for 18 hours in the presence of 5% CO2 to evaluate the level of expression of meltrin in Example 15. […]
After removing PBS from the plate, 0.5 mL/well of Trizol Reagent (Invitrogen) was added to the plate. […] After drying, the precipitate was dissolved in water not containing RNase, and absorbance at a wavelength of 260 nm was measured to determine the RNA concentration (1OD=40 μg/mL). […]

Oc1c(C(Nc2ccccn2)c2ccccc2)ccc2cccnc12 (centres unmarked) [M82463, 7-[phenyl(pyridine-2-ylamino)methyl]quinoline-8-ol]
cytotoxicity [1]: no cytotoxicity was found | activity for inhibiting protease activity of meltrin α [2]: suppressed the disappearance of the rhIGF-BP3 | adipocyte proliferation and differentiation ([3]; 0.3 to 10 μg/mL, DMSO 0.2%): suppressed the adipocyte proliferation and differentiation in a dose dependent manner

HS0307A: phosphorothioate antisense sequence CACGGGCAGCGGGCGCGCTGCCAT near the 5′ end of the coding region of human meltrin α (antisense dC*dA*dC*dG*dG*dG*dC*dA*dG*dC*dG*dG*dG*dC*dG*dC*dG*dC*dT*dG*dC*dC*dA*dT)
suppression of level of expression of the meltrin α [4]: about 70% | accumulation of the neutral fat in the preadipocyte ([3]; 5 days after differentiation stimulation, compared to the sense sequence group): suppressed to a greater degree
